EP0808325B1, “[…] […] SERIES FOR […] GABA RECEPTOR” (priority 1994, dated 1996)

Tests used:
mice [1] = assay: loss-of-righting reflex (anesthetic activity); assay type: in vivo; set-up: unit not given here; conditions: iv
Description: The compounds of and used in the invention can also be used for anesthetic indications at high doses. However, the preferred route of administration to induce anesthesia is intravenous (i.v.) administration. In animals, a drug's anesthetic properties is measured by the drug's ability to produce a loss-of-righting reflex. The loss-of-righting reflex is defined as the inability of an animal to right itself within 30 seconds when placed on its back. Mice were administered drug i.v. in the lateral tail vein. Following administration, mice were placed on their backs and observed for loss-of-righting reflex.

GR complex = assay: modulation of [35S]TBPS binding in rat cerebral cortex P2 homogenate; set-up: species or system Sprague-Dawley rats; IMAX: unit not given here; conditions: for IC50: concentration of compounds to inhibit 50% of control [35S]TBPS binding, 2 nM [35S]TBPS, 25°C, 90 minutes; for IMAX: maximum inhibition of [35S]TBPS binding, I* = Inactive
Procedure, shortened: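 Rat (male Sprague-Dawley) cortical P2 homogenate, 0.5 mg protein, in 50 mM Na/K phosphate pH 7.4, 200 mM NaCl, incubated 90 min at 25° C with 2 nM [35S]TBPS plus GABA and (+)bicuculline, compounds added in DMSO. Filter-bound radioactivity counted; nonspecific binding defined with […].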

mice [2] = assay: elevated plus-maze; assay type: in vivo, N.I.H. Swiss-Webster mice; conditions: IP
Excerpt: The theoretical basis for the elevated plus-maze test is similar to that of the light/dark transition test. As described by Pellow et al., J. Neurosci. Meth 14:149-167 (1985), the elevated plus-maze apparatus is designed to utilize the mice's natural aversion to open spaces. The apparatus consists of two open-arms and two enclosed-arms. The elevated plus-maze test allows for two measures of anxiety, the number of entries into the open-arms and the time spent on the open-arms, both expressed as a percentage of the total number of entries and time spent in/on both the open-arms and enclosed-arms.
Male N.I.H. Swiss-Webster mice (Harlan, Indianapolis, IN) weighing 15-20 g were housed four per cage in polyethylene cages with sawdust bedding. The colony room was environmentally controlled (22°C) with a 12 hr light/dark cycle (0600-1800 hr). Food and water were available ad libitum, except during testing. The experiments were run from 0700-1500 hr and groups were counterbalanced for time of day effects. Mice were only administered drug or vehicle once.
The method used was previously described (Lister, Psychopharmacol. 92:180-185 (1987)). The apparatus included two open arms perpendicular to two enclosed arms elevated 50 cm from the floor. Each arm was 50 cm long and the walls of the enclosed arms were 40 cm tall. The maze was made completely of black plexiglass. Incandescent 200 W light bulbs were above each of the open arms to produce a strong contrast between the open arms and the enclosed arms.
Ten minutes after an injection, the N.I.H. Swiss-Webster mice were placed in the center of the plus-maze facing an open arm. During the 5 min test period, the number of entries onto the open arms and the enclosed arms, and the time spent in the open arms and enclosed arms were measured. All four paws had to be within an arm for the dependent variable to be measured. Therefore, the time spent in the center of the maze is not counted, so the total time spent in the open arms and the enclosed arms may not equal 5 min. […]

[3] = system: metrazol induced convulsions; assay: animal or person; assay type: in vivo, mice; conditions: IP, 10 mg/kg
rats = assay: Geller-Seifter conflict test; assay type: in vivo, Sprague-Dawley rats
Excerpt: This animal model of human anxiety utilizes a conditioned state of conflict in rats to ascertain the anxiolytic properties of drugs. Rats are conditioned to bar press for positive reinforcement under two schedules of behavior (Geller and Seifter, Psychopharmacologia 1:482-492 (1960)). The first includes bar pressing under a […] schedule without punishment. The second component is a fixed ratio schedule with each bar press resulting in a positive reinforcement and a punishment. The punished component produces a state of conflict within the animal. […] An anxiolytic response would increase the punished responding without affecting the unpunished responding.
Male albino Sprague-Dawley rats (Charles River Labs, Wilmington, MA) weighing 250-300 g were used for conflict experiments and were kept on a restricted diet of Purina Lab Chow food pellets with water available at all times to maintain body weight at 85% of their free-feeding young adult levels. Rats were housed individually under a 12-hour light-dark cycle with lights on from 0700-1900.
The anti-anxiety (punishment-lessening) and response depressant effects of […] and […] were measured in rats by the conflict test of Geller and Seifter (1960). In this 63-min test, hungry rats perform a lever-press response to obtain a sweetened milk reward. The reinforcement schedule consists of punishment and nonpunishment components, alternating approximately every 15 min. Rats were trained in test chambers (Coulbourn instruments) with a lever mounted in one wall, a small dipper that delivered the 0.1-mL milk reward (1 part Eagle condensed : milk 2 parts water), and a metal grid floor through which the foot-shock punishment was administered. A DEC PDP 11/73 minicomputer running SKED (State Systems) was used for programming and recording.
Rates initially learned to respond on a continuous reinforcement schedule and progressed rapidly to 30-sec, 1-min, and 2-min variable interval (VI) schedules. On the continuous reinforcement schedule, rats received milk reward following every lever press; on the VI schedules, milk rewards were available at infrequent and variable intervals, eventually at an average of once every 2 min. Four 3-min "conflict" periods were then introduced on the unpunished VI baseline; the first started after 3 min of VI performance and the others were alternated between 12-min periods of VI responding. During conflict periods, which were signalled by the presentation of a light and a tone, the continuous reinforcement schedule was again in force and each lever press delivered both a milk reward and a brief ([…]) foot-shock punishment. Shock intensity was 0.2 mA initially, and.was increased daily in increments of 0.02 mA in order to gradually suppress lever pressing to 5 responses or less per conflict period. This training took 4-6 weeks, after which stable low rates of response were observed during conflict periods and stable high rates in the nonpunishment periods. Drug-induced increases in the rate of punished responses were taken as an index of antianxiety activity, while decreases in the rate of unpunished responses were taken as an index of response depression or sedation.

[4] = 50% hpbcd, 10 minutes prior to metrazol (85 mg/kg)

Compound: CC(=O)[C@H]1CC[C@H]2[C@@H]3CC[C@H]4C[C@H](O)[C@@H](F)C[C@]4(C)[C@H]3CC[C@]12C [2β-Fluoro-3α-hydroxy-5α-pregnan-20-one]
- Loss-of-Righting Reflex (mice [1]; micronizing solution, 5 mg/kg): 100

Compound: CC(=O)[C@H]1CC[C@H]2[C@@H]3CC[C@@H]4C[C@@](O)(C#CCl)CC[C@]4(C)[C@H]3CC[C@]12C [3β-(Chloroethynyl)-3α-hydroxy-5β-prognan-20-one]
- Loss-of-Righting Reflex (mice [1]; micronizing solution, 20 mg/kg): 100

Compound: COCCC(=O)[C@H]1CC[C@H]2[C@@H]3CC[C@H]4C[C@](C)(O)CC[C@]4(C)[C@H]3CC[C@]12C [3α-Hydroxy-3β-methyl-21-methoxymethyl-5α-pregnan-20-one]
- Loss-of-Righting Reflex (mice [1]; micronizing solution, 20 mg/kg): 100

Compound: COC=C1CCC2C3CCC4CC(O)CCC4C3CCC12C (stereo not drawn) [3α-Hydroxy-17(20)(Z)-methoxytnethylene-19-nor-5α-androstane]
- Loss-of-Righting Reflex (mice [1]; micronizing solution, 5 mg/kg): 75

Compound: CC(=O)C1=CC[C@H]2[C@@H]3CC[C@H]4C[C@](C)(O)CC[C@]4(C)[C@H]3CC[C@]12C [3α-Hydroxy-3β-methyl-5α-pregn-16-en-20-one]
- Loss-of-Righting Reflex (mice [1]; micronizing solution, 50 mg/kg): 100

Compound: CC(=O)[C@H]1CC[C@H]2[C@@H]3CC[C@H]4C[C@H](O)CC[C@]4(C)C3=CC[C@]12C [3α-Hydroxy-5α-pregn-9-en-20-one]
- Loss-of-Righting Reflex (mice [1]; micronizing solution, 10 mg/kg): 100

Compound: CC(=O)OCC(=O)[C@H]1CC[C@H]2[C@@H]3CC[C@@H]4C[C@@](O)(C(F)(F)F)CC[C@]4(C)[C@H]3CC[C@]12C [3α,21-Dihydroxy-3β-trifluoromethyl-5β-pregnan-20-one, 21-acetate]
- IC50 (GR complex; no unit printed): 370 nM
- IMAX (GR complex): 88
- % Control (mice [2]; 50% hpbcd, 5 mg/kg): 143.3%
- % Protected [3, 4]: 62.5%
- Geller/Seifter (% of control) (rats; sc, 50% hpbcd, 8 mg/kg): 882.8 % of control

Compound: CC(=O)[C@H]1CC[C@H]2[C@@H]3CC[C@@H]4C[C@@](O)(C(F)(F)F)CC[C@]4(C)[C@H]3CC[C@]12C [3α-Hydroxy-3β-trifluoromethyl-5β-pregnan-20-one]
- IC50 (GR complex; no unit printed): 211 nM
- IMAX (GR complex): 98
- % Control (mice [2]; 50% hpbcd, 20 mg/kg): 197.6%
- % Protected [3, 4]: 62.5%
- Geller/Seifter (% of control) (rats; sc, 50% hpbcd, 4 mg/kg): 663.2 % of control

Compound: C#C[C@@]1(O)CC[C@@]2(C)[C@H](CC[C@@H]3[C@@H]2CC[C@]2(C)[C@@H](C(=O)CO)CC[C@@H]32)C1 [3α,21-Dihydroxy-3β-ethynyl-5β-pregnan-20-one]
- IC50 (GR complex; no unit printed): 216 nM
- IMAX (GR complex): 104
- % Control (mice [2]; 50% hpbcd, 10 mg/kg): 162%
- % Protected [3, 4]: 18.8%
- Loss-of-Righting Reflex (mice [1]; 20% cremophor, 10 mg/kg): 100

Compound: CC(=O)[C@H]1CC[C@H]2[C@@H]3CC[C@H]4C[C@@](O)(CF)CC[C@]4(C)[C@H]3CC[C@]12C [3β-Fluoromethyl-3α-hydroxy-5α-pregnan-20-one]
- IC50 (GR complex; no unit printed): 200 nM
- IMAX (GR complex): 77
- % Control (mice [2]; 50% hpbcd, 20 mg/kg): 150.7%
- % Protected [3, 4]: 14.3%
- Geller/Seifter (% of control) (rats; sc, 50% hpbcd, 8 mg/kg): 1005 % of control

Compound: CC(=O)[C@H]1CC[C@H]2[C@@H]3CC[C@@H]4C[C@](C)(O)CC[C@]4(C)[C@H]3CC[C@]12C [3α-hydroxy-3β-methyl-5β-pregnan-20-one]
- IC50 (GR complex; no unit printed): 37 nM
- IMAX (GR complex): 98
- % Protected ([3]; micro soln.): 70%
- Loss-of-Righting Reflex (mice [1]; micronizing solution, 2.5 mg/kg): 100

Compound: C#C[C@@]1(O)CC[C@@]2(C)[C@H](CC[C@@H]3[C@@H]2CC[C@]2(C)[C@@H](C(C)=O)CC[C@@H]32)C1 [3β-ethynyl-3α-hydroxy-5β-pregnan-20-one, 3β-Ethynyl-3α-hydroxy-5β-pregnan-20-one]
- IC50 (GR complex; no unit printed): 39 nM
- IMAX (GR complex): 101
- % Control (mice [2]; 50% hpbcd, 1 mg/kg): 186.6%
- % Protected [3, 4]: 100%
- Loss-of-Righting Reflex (mice [1]; 10% hpbcd, 30 mg/kg): 100
- Geller/Seifter (% of control) (rats; sc, 50% hpbcd, 2 mg/kg): 751.1 % of control

Compound: CCO[C@H]1C[C@@]2(C)[C@@H](CC[C@@H]3[C@@H]2CC[C@]2(C)[C@@H](C(C)=O)CC[C@@H]32)C[C@@H]1O [2β-Ethoxy-3α-hydroxy-5α-pregnan-20-one]
- Loss-of-Righting Reflex (mice [1]; 20% cremophor, 5 mg/kg): 100

Compound: C[C@]12CC[C@](O)(C(F)(F)F)C[C@H]1CC[C@@H]1[C@@H]2CC[C@]2(C)[C@@H](C(=O)COC(=O)CCC(=O)[O-])CC[C@@H]12.[Na+] [3α,21-Dihydroxy-3β-trifluoromethyl-5β-pregnan-20-one, 21-hemisuccinate, sodium salt]
- IC50 (GR complex; unit inferred, sodium salt): 712 nM
- IMAX (GR complex): 99
- % Control (mice [2]; water, 20 mg/kg): 172.8%
- % Protected ([3]; water): 62.5%
- Geller/Seifter (% of control) (rats; po, water, 8 mg/kg): 840.0 % of control

Compound: C=C[C@@]1(O)CC[C@@]2(C)[C@@H](CC[C@@H]3[C@@H]2CC[C@]2(C)[C@@H](C(C)=O)CC[C@@H]32)C1 [3β-ethenyl-3α-hydroxy-5α-pregnan-20-one, 3β-Ethenyl-3α-hydroxy-5α-pregnan-20-one]
- IC50 (GR complex; no unit printed): 113 nM
- IMAX (GR complex): 88
- % Control (mice [2]; 50% hpbcd, 5 mg/kg): 154.3%
- % Protected [3, 4]: 100%
- Geller/Seifter (% of control) (rats; po, 50% hpbcd, 12 mg/kg): 1092.3 % of control
